From patent US6124275A, “Methods and compositions for controlling a pest population” (priority 1999, dated 2000)
Where two headings read alike, the source gives them in different places.

Assays:
cladosporium = experiment: Evaluation against the fungus cladosporium; conditions: 1 wt % formulation
two-spotted spider mite = experiment: Pesticidal efficacy, two-spotted spider mite (Example 8); conditions: for mortality at 5 %: Tetranychus urticae, topical, read-out: highest observed mortality
Description: (§1) Plants (chrysanthemum and minirose) were infested with melon aphid and two-spotted spider mites and sprayed to run-off using a standard 250 ml hand-held sprayer. Mortality was recorded at 24 HPA and 48 HPA.

melon aphid = experiment: Pesticidal efficacy, melon aphid (Example 8); conditions: for mortality at 5 % / mortality at 1 %: Aphis gossypii, topical, read-out: highest observed mortality
Description: as §1

American cockroach [1] = experiment: whole plant or invertebrate; conditions: Periplaneta americana, topical, read-out: highest observed mortality
Description: (§2) The objective of the experiment was to evaluate the general effectiveness of ES in an emulsion formulation against the American cockroach.
(§3) An emulsion of ES (Sigma) was prepared at 5.0 wt % ES and 1.0 wt % T20. A 1 wt % T20 solution was also prepared as a formula blank treatment. A negative control of no treatment was included in the bioassay. The three treatments were applied to three replications of 4 cockroaches each.
(§4) The treatments were applied as sprays using a standard hand held 250 ml sprayer. For each direct treatment, 4 cockroaches were each sprayed to run-off on filter paper fitted to the bottom of a 1 liter stainless steel jar. Cockroaches were then transferred to 250 ml flasks for observation. For residuality/reintroduction bioassays, the treated filter papers were removed from direct treatment spray jars and allowed to air dry. After drying, the filter papers were replaced in jars and cockroaches introduced for observation.

American cockroach [2] = conditions: for Time (to 100% lethality): 5.0 wt % ES, 1.0 wt % T20
Description: as §2, §3, §4

honey bee = experiment: Pesticidal efficacy, honey bee (Example 8); type: in vivo; conditions: Apis mellifera, topical, T20 carrier, 24 hours post application, read-out: highest observed mortality
two-spotted spider mites [3] = type: in vivo, Tetronmychua urticae; conditions: for efficacy against two-spotted spider mites: 1.0% BS, 0.2% T20, words
[4] = until 25 wt % concentration; cited from earlier work
Argentine ants = experiment: Repellency to Argentine ants; type: in vivo, Argentine ant; conditions: at one week
arthropods = experiment: Insecticidal activity on arthropods (general statement); type: in vivo; conditions: words
melon aphids [5] = experiment: whole plant or invertebrate; type: in vivo, Aphis gossypii; conditions: for efficacy against melon aphids: 1.0% BS, 0.2% T20, words
leafminer = conditions: for highest observed mortality: leafminer, in vivo, topical or ocular, 480 h
silverleaf whiteflies = conditions: for highest observed mortality: silverleaf whitefly, in vivo, topical or ocular, 120 h
western flower thrips [6] = experiment: whole plant or invertebrate; conditions: Frankliniella occidentalis, topical, 72 h, read-out: highest observed mortality
housefly = experiment: whole plant or invertebrate; conditions: Musca domestica, topical, 24 h, read-out: highest observed mortality
Description: (§5) All experiments were conducted with a hand held sprayer at an application rate equivalent to 100 gallons/acre. […] Specific treatment conditions were as follows: pharaoh ants were contained in paper cups with a cloth mesh enclosure at the top and sprayed from a distance of 12 inches; honey bees were contained in wire mesh cages with Petri dishes as end enclosures and sprayed from a distance of 24 inches; German cockroaches and houseflies were contained in Peet-Grady chambers and sprayed from a distance of 24 inches; and cat fleas were delivered onto carpet disks and sprayed from an un-reported distance.

chrysanthemums = test system: chrysanthemums; set-up: species or system chrysanthemum; conditions: in vivo
Source text: Both formulations were applied via direct contact spray. […] The phytotoxicity of plants were also observed.

German cockroach = experiment: whole plant or invertebrate; conditions: Blattella germanica, topical, 24 h, read-out: highest observed mortality
Description: as §5

Argentine ant = experiment: Pesticidal efficacy, Argentine ant (Example 8)
cat flea = experiment: Pesticidal efficacy, cat flea (Example 8); conditions: for mortality at 5 wt %: Ctenocephalides felis, topical, 24 h, read-out: highest observed mortality
Description: as §5
(§6) In evaluating efficacy against structural pests, BS was tested on pharaoh ant and cat flea at two concentrations, 1 wt % and 5 wt %.

plants = experiment: Phytotoxicity to plants (general statement); type: in vivo; conditions: words
pharaoh ant = conditions: for highest observed mortality: in vivo, topical or ocular, 24 h
Description: as §5, §6

rats = conditions: Merck Index; cited from earlier work
melon aphids [7] = experiment: whole plant or invertebrate; conditions: Aphis gossypii, topical, 24 h, read-out: Total Mortality
melon aphids [8] = conditions: words
[9] = test system: Western flower thrips (larvae and pupae); experiment: whole plant or invertebrate; conditions: Frankliniella occidentalis, topical, read-out: Total Mortality
two-spotted spider mites [10] = conditions: 1.0% BB, 0.1% T80; words
melon aphids [11] = conditions: 1.5% BB, 0.5% T80; words
western flower thrips [12] = conditions: words
two-spotted spider mites [13] = conditions: words
[14] = test system: Western flower thrips (larvae and pupae); conditions: 1.0% BB, 0.1% T80, words
[15] = test system: E. hirsti (chiggar mite) larvae; conditions: cloth treated with ethanol solution of 5% benzyl benzoate, cited from earlier work
melon aphids [16] = conditions: 1.5% BB, 0.3% T80; words
melon aphids [17] = experiment: whole plant or invertebrate; conditions: Aphis gossypii, topical, 24 h, read-out: Total Mortality; remark: listed apart in the source
roses = conditions: in vivo
Source text: Both formulations were applied via direct contact spray.
Both were applied via direct contact spray.

human head lice eggs = conditions: 22.5 g as a thin layer on the eggs; cited from earlier work
melon aphids [18] = experiment: whole plant or invertebrate; conditions: Aphis gossypii, topical, read-out: Total Mortality

O=C(Oc1ccccc1)c1ccccc1O [phenyl salicylate]
effect against the fungus cladosporium (cladosporium): effective at both inhibiting fungal growth and at killing the fungus
mortality at 5 % (two-spotted spider mite): 90%
mortality at 5 % (melon aphid): 90%

CCOC(=O)c1ccccc1O [ES, ethyl salicylate]
mortality at 5 wt % (American cockroach [1]): 100%
lethality on American cockroach (American cockroach [2]; 5 wt %, direct spray, words): lethal
Time (to 100% lethality) (American cockroach [2]; Direct spray): 3 to 7 min
Time (to 100% lethality) (American cockroach [2]; Residuality/Reintroduction): 60 to 120 min
Lethality (American cockroach [2]; american cockroach, in vivo): 100%
time, lethal to all test cockroaches (American cockroach [2]; both direct spray and residual/reintroduction): ≤ 2 h
mortality at 5 % (two-spotted spider mite): 90%
mortality at 5 % (melon aphid): 90%

COC(=O)c1ccccc1O [methyl salicylate]
mortality at 5 % (two-spotted spider mite): 90%
mortality at 5 % (melon aphid): 90%

O=C(OCc1ccccc1)c1ccccc1O [BS, benzyl salicylate]
mortality at 1 % (honey bee; 1.0 wt % AC): 78%
efficacy against two-spotted spider mites (two-spotted spider mites [3]): clearly indicate the efficacy of BS against melon aphids and two-spotted spider mites
efficacy against two-spotted spider mites (two-spotted spider mites [3]; listed as benzyl salicylate): effective in controlling aphids and spider mites
Total Mortality (two-spotted spider mites [3]; in vivo, topical or ocular): 86.9%
contact dermatitis [4]: does not cause contact dermatitis (until 25 wt % concentration)
repellant to Argentine ants (Argentine ants): repellant to Argentine ants at one week
insecticidal activity (arthropods): clearly shown to be insecticidal
efficacy against melon aphids (melon aphids [5]): clearly indicate the efficacy of BS against melon aphids
efficacy against melon aphids (melon aphids [5]; listed as benzyl salicylate): effective in controlling aphids
mortality at 1 % (melon aphids [5]; Aphis gossypii, topical, read-out: Total Mortality): 89.3%
highest observed mortality (leafminer): 25%
highest observed mortality (silverleaf whiteflies): 70%
mortality at 0.5 % (western flower thrips [6]): 36%
mortality at 0.1 % (housefly): 47%
phytotoxicity, chrysanthemums (chrysanthemums): severe damage from leaf tips moving inwards, and some leaf damage beginning from bottom leaves and moving upwards, with the newest leaves remaining unaffected
mortality at 1.1 % (German cockroach): 0%
highest observed mortality (Argentine ant; 1.0 wt % AC, T20 carrier): 99%
LC100 at higher concentrations (Argentine ant; 2, 3 and 5 wt %, words): held at 2 wt %, 3 wt % and 5 wt %
LC100 (Argentine ant; AC concentration): 1 wt %
activity on Argentine ants (Argentine ant; words): excellent activity
dose response, Argentine ants (Argentine ant; words): good dose response
effective on cat flea (cat flea; 5 wt %, words): effective on both pests
mortality at 5 wt % (cat flea): 100%
phytotoxicity (plants): can be phytotoxic to some plants
mortality at 1 % (melon aphid): 98%
dose response, melon aphid (melon aphid; words): activity increased with AC concentration only on melon aphid
effective on pharaoh ant (pharaoh ant; 5 wt %, words): effective on both pests
highest observed mortality (pharaoh ant): 89%

CC(=O)OCc1ccccc1 [benzyl acetate]
mortality at 5 % (two-spotted spider mite): ≥ 90%
activity on 2-spotted spider mites (two-spotted spider mite; words): high activity
phytotoxicity (plants): non-phytotoxic
mortality at 5 % (melon aphid): ≥ 90%
activity on aphid (melon aphid; words): high activity

O=C(OCc1ccccc1)c1ccccc1 [BB, benzyl benzoate]
LD50 (rats): 1,830 mg/Kg
mortality at 0.3 % (honey bee; 0.3 wt % AC): 68%
mortality at 1.5 % (melon aphids [7]): 89.4%
highest observed mortality (leafminer): 24%
dose response, leafminer (leafminer; words): Good dose response
efficacy against melon aphids (melon aphids [8]; 2.5% BB, 0.1% T80): clear efficacy against melon aphids
controlling aphids (melon aphids [8]; summary of Examples 1-7): effective for controlling aphids
highest observed mortality (silverleaf whiteflies): 39%
dose response, silverleaf whiteflies (silverleaf whiteflies; words): Good dose response
mortality at 1 % [9]: 85.7%
mortality at 0.25 % (western flower thrips [6]): 14%
efficacy against two-spotted spider mites (two-spotted spider mites [10]): indicate efficacy of the benzyl benzoate formulation against two-spotted spider mites
effect on melon aphids (melon aphids [11]): killed the aphids in their tracks; the aphids did not desiccate, instead appeared preserved
dose response, western flower thrips (western flower thrips [12]): all except for western flower thrips
mortality at 0.1 % (housefly): 35%
phytotoxicity of chrysanthemums (chrysanthemums): None of the treatments resulted in phytotoxicity of chrysanthemums
phytotoxicity to chrysanthemums (chrysanthemums): no phytotoxicity to chrysanthemums
phytotoxicity, chrysanthemum (chrysanthemums): no phytotoxicity for 5 days, only the lowest leaves showed two necrotic spots but no serious damage
phytotoxicity, chrysanthemums (chrysanthemums): no phytotoxicity
mortality at 1 % (German cockroach): 0%
efficacy against two spotted spider mites (two-spotted spider mites [13]; 2.5% BB, 0.1% T80): clearly indicate efficacy of the BB formulation against two spotted spider mites
controlling spider mites (two-spotted spider mites [13]; summary of Examples 1-7): effective for controlling aphids, thrips, and spider mites
efficacy against Western flower thrips [14]: clear efficacy against Western flower thrips
efficacy against Western flower thrips ([14]; listed as benzyl benzoate): effective for controlling aphids, thrips
knockdown of test larvae ([15]; <3 minutes): 100%
time to 100% knockdown [15]: < 3 min
efficacy against melon aphids (melon aphids [16]): clear efficacy against melon aphids
mortality at 2.5 % (melon aphids [17]): 90.3%
phytotoxicity observed on the roses (roses): no phytotoxicity observed
mortality at 5 wt % (cat flea): 93%
mortality at 1 % (melon aphid): 74%
dose response, melon aphid (melon aphid; words): Good dose response
killing human head lice eggs (human head lice eggs): killing human head lice eggs
highest observed mortality (pharaoh ant): 21%
mortality at 1.5 % (melon aphids [18]): 85%

CCCCOC(=O)c1ccccc1C(=O)OCc1ccccc1 [benzyl butyl phthalate]
mortality at 5 % (two-spotted spider mite): 50%
mortality at 5 % (melon aphid): 70%
